Reference: patent US8138168B1 (Takeda Pharmaceutical Company Limited, priority 2007, dated 2012)

target: T1, Recombinant human renin (Homo sapiens, UniProt P00797); experiment: In vitro enzymatic activity assay of renin inhibitors (fluorogenic peptide substrate); type: biochemical; conditions: read-out: IC50 of Exemplified Compounds Against Renin
T1 construct: isolate the active form (residues 67-406); made in house; host or cells: FreeStyle 293-F cells (transient expression of pcDNA3.1(+)/hREN)
T1 sequence (P00797 67-406): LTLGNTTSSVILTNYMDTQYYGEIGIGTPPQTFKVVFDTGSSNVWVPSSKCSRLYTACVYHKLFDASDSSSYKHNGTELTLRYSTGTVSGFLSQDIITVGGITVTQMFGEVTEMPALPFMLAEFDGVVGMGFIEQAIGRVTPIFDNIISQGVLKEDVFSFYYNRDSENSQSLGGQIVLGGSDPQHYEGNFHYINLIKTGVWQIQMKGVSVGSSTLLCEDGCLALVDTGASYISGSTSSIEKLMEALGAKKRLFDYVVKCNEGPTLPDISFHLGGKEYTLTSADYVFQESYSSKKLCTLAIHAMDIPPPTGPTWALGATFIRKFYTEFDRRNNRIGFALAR
Procedure, shortened: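 Recombinant human renin (3 nM final) pre-incubated 10 min at 37 °C with compounds in pH 7.4 Hepes/EDTA/DTT/0.1 mg/mL BSA/Brij35 buffer (optionally plus 2% BSA), 5% DMSO final; fluorogenic QXL520/HiLyteFluo488 peptide substrate added.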

IC50, < 0.1 µM:
COCCCn1c([C@@H]2CCCN(C(=O)C[C@H](N)Cc3ccc(-c4ccncc4OC)cc3)C2)nc2ccccc21 [Compound 144, (R)-3-amino-1-((R)-3-(1-(3-methoxypropyl)-1H-benzo[d]imidazol-2-yl)piperidin-1-yl)-4-(4-(3-methoxypyridin-4-yl)phenyl)butan-1-one]
COCCCn1c([C@@H]2CCCN(C(=O)C[C@H](N)Cc3ccc(-c4ccoc4)cc3)C2)nc2ccccc21 [Compound 145, (R)-3-amino-4-(4-(furan-3-yl)phenyl)-1-((R)-3-(1-(3-methoxypropyl)-1H-benzo[d]imidazol-2-yl)piperidin-1-yl)butan-1-one]
COCCCn1c([C@@H]2CCCN(C(=O)C[C@H](N)Cc3ccc(-c4ccco4)cc3)C2)nc2ccccc21 [Compound 146, (R)-3-Amino-4-(4-(furan-2-yl)phenyl)-1-((R)-3-(1-(3-methoxypropyl)-1H-benzo[d]imidazol-2-yl)piperidin-1-yl)butan-1-one]
COCCCn1c([C@@H]2CCCN(C(=O)C[C@H](N)Cc3ccc(-c4ccc(N(C)C)nc4)cc3)C2)nc2ccccc21 [Compound 147, (R)-3-amino-4-(4-(6-(dimethylamino)pyridin-3-yl)phenyl)-1-((R)-3-(1-(3-methoxypropyl)-1H-benzo[d]imidazol-2-yl)piperidin-1-yl)butan-1-one]
COCCCn1c([C@@H]2CCCN(C(=O)C[C@H](N)Cc3ccc(-c4cncnc4)cc3)C2)nc2ccccc21 [Compound 149, (R)-3-Amino-1-((R)-3-(1-(3-methoxypropyl)-1H-benzo[d]imidazol-2-yl)piperidin-1-yl)-4-(4-(pyrimidin-5-yl)phenyl)butan-1-one]
COCCCn1c([C@@H]2CCCN(C(=O)C[C@H](N)Cc3ccc(-c4ccnc(F)c4)cc3)C2)nc2ccccc21 [Compound 150, (R)-3-amino-4-(4-(2-fluoropyridin-4-yl)phenyl)-1-((R)-3-(1-(3-methoxypropyl)-1H-benzo[d]imidazol-2-yl)piperidin-1-yl)butan-1-one]
COCCCn1c([C@@H]2CCCN(C(=O)C[C@H](N)Cc3ccc(-c4cccnc4F)cc3)C2)nc2ccccc21 [Compound 151, (R)-3-amino-4-(4-(2-fluoropyridin-3-yl)phenyl)-1-((R)-3-(1-(3-methoxypropyl)-1H-benzo[d]imidazol-2-yl)piperidin-1-yl)butan-1-one]
COCCCn1c([C@@H]2CCCN(C(=O)C[C@H](N)Cc3ccc(-c4cc[nH]c4)cc3)C2)nc2ccccc21 [Compound 152, (R)-4-(4-(1H-pyrrol-3-yl)phenyl)-3-amino-1-((R)-3-(1-(3-methoxypropyl)-1H-benzo[d]imidazol-2-yl)piperidin-1-yl)butan-1-one]
COCCCn1c([C@@H]2CCCN(C(=O)C[C@H](N)Cc3ccc(-c4ccc[nH]4)cc3)C2)nc2ccccc21 [Compound 153, (R)-4-(4-(1H-pyrrol-2-yl)phenyl)-3-amino-1-((R)-3-(1-(3-methoxypropyl)-1H-benzo[d]imidazol-2-yl)piperidin-1-yl)butan-1-one]
COCCCn1c([C@@H]2CCCN(C(=O)C[C@H](N)Cc3ccc(-c4cnc(N)nc4)cc3)C2)nc2ccccc21 [Compound 154, (R)-3-amino-4-(4-(2-aminopyrimidin-5-yl)phenyl)-1-((R)-3-(1-(3-methoxypropyl)-1H-benzo[d]imidazol-2-yl)piperidin-1-yl)butan-1-one]
COCCCn1c([C@@H]2CCCN(C(=O)C[C@H](N)Cc3ccc(-c4ccccc4Cl)cc3)C2)nc2ccccc21 [Compound 155, (R)-3-amino-4-(2′-chlorobiphenyl-4-yl)-1-((R)-3-(1-(3-methoxypropyl)-1H-benzo[d]imidazol-2-yl)piperidin-1-yl)butan-1-one]
